From PubChem BioAssay (NCI)
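A five-concentration, 48-hour dose response in 96-well plates underlies each endpoint, interpolated linearly between surrounding concentrations. Abbreviation: GI50, concentration required for 50% inhibition of growth. The concentration for full growth arrest is given as TGI.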

test system: SK-MEL-2 melanoma; assay: NCI-60 cell line screen, 48 h

Row | SMILES | TGI | GI50
1 | CC1=N/C(=C\c2cccc([N+](=O)[O-])c2)C(=O)O1 | > 100 µM | –
2 | C/C=C1/C(=C/c2[nH]c(/C=c3\[nH]/c(=C/C4=NC(=O)C(CC)=C4C)c(C)c3CCC(=O)O)c(CCC(=O)O)c2C)NC(=O)C1C (configuration not stated) | > 150 µg/mL | > 150 µg/mL
3 | COc1cccc(/C=C2\C(=O)N(C(=O)c3ccc(NC(C)=O)cc3)N=C2C)c1 | > 100 µM | –
4 | COC(C(O)c1ccc2c(c1)OCO2)P(=O)(c1ccccc1)c1ccccc1 (configuration not stated) | > 100 µM | –
5 | CNc1nc(N)c(N=O)c(Nc2ccc(Br)cc2)n1 | > 100 µM | –
6 | CN1C(=O)c2ccccc2NC(=O)C12O[C@@H]2c1cccc(O)c1 (some centres not stated) | > 100 µM | –
7 | N#Cc1cccc(NC(=O)c2cc(-c3ccc(F)cc3F)ccc2O)c1 | 5.49 µM | 1.76 µM

test system: NCI-H460 lung; assay: NCI-60 cell line screen, 48 h

Row | SMILES | TGI | GI50
8 | Fc1ccc(C2SCc3nc4ccccc4n32)cc1Cl (configuration not stated) | > 100 µM | –
9 | CC1=N/C(=C\c2cccc([N+](=O)[O-])c2)C(=O)O1 | > 100 µM | –
10 | COc1ccc(/C=C\c2cc(OC)c(OC)c(OC)c2)cc1OC(=O)NCCN(C)C | 0.00485 µM | –
11 | Cc1ccc(NC(=O)NCCCOc2ccc(N3C(N)=NC(N)=NC3(C)C)cc2Cl)cc1S(=O)(=O)F | > 100 µM | 1.68 µM
12 | CC[CH2][Sn]([Cl])([Cl])[CH2]CC.Oc1ccccc1C=NCCN=Cc1ccccc1O | 33 µM | 15.6 µM
13 | C/C=C1/C(=C/c2[nH]c(/C=c3\[nH]/c(=C/C4=NC(=O)C(CC)=C4C)c(C)c3CCC(=O)O)c(CCC(=O)O)c2C)NC(=O)C1C (configuration not stated) | > 150 µg/mL | > 150 µg/mL
14 | COc1cccc(/C=C2\C(=O)N(C(=O)c3ccc(NC(C)=O)cc3)N=C2C)c1 | > 100 µM | –
15 | COC(C(O)c1ccc2c(c1)OCO2)P(=O)(c1ccccc1)c1ccccc1 (configuration not stated) | > 100 µM | –
16 | CNc1nc(N)c(N=O)c(Nc2ccc(Br)cc2)n1 | > 100 µM | –
17 | CC(C)c1ccc(C(c2ccc(OCC(=O)O)cc2)c2ccc(C(C)C)cc(=O)c2O)c(O)c(=O)c1 | 8.34 µM | –
18 | CN1C(=O)c2ccccc2NC(=O)C12O[C@@H]2c1cccc(O)c1 (some centres not stated) | > 100 µM | –
19 | COc1ccc2c3c(coc13)C(CCC(=O)O)CC2 (configuration not stated) | > 100 µM | –
20 | N#Cc1cccc(NC(=O)c2cc(-c3ccc(F)cc3F)ccc2O)c1 | 11.2 µM | 2.75 µM
21 | COc1ncc(-c2ccc3ncnc(Nc4cccc(Cl)c4)c3c2)cc1NS(=O)(=O)CCN1CCOCC1 | > 100 µM | 0.393 µM

test system: M14 melanoma; assay: NCI-60 cell line screen, 48 h

Row | SMILES | TGI | GI50
22 | CC1=N/C(=C\c2cccc([N+](=O)[O-])c2)C(=O)O1 | > 100 µM | –
23 | COc1ccc(/C=C\c2cc(OC)c(OC)c(OC)c2)cc1OC(=O)NCCN(C)C | > 35 µM | –
24 | Cc1ccc(NC(=O)NCCCOc2ccc(N3C(N)=NC(N)=NC3(C)C)cc2Cl)cc1S(=O)(=O)F | > 100 µM | 7.81 µM
25 | CC[CH2][Sn]([Cl])([Cl])[CH2]CC.Oc1ccccc1C=NCCN=Cc1ccccc1O | 19.3 µM | 5.49 µM
26 | C/C=C1/C(=C/c2[nH]c(/C=c3\[nH]/c(=C/C4=NC(=O)C(CC)=C4C)c(C)c3CCC(=O)O)c(CCC(=O)O)c2C)NC(=O)C1C (configuration not stated) | > 150 µg/mL | > 150 µg/mL
27 | COc1cccc(/C=C2\C(=O)N(C(=O)c3ccc(NC(C)=O)cc3)N=C2C)c1 | > 100 µM | –
28 | COC(C(O)c1ccc2c(c1)OCO2)P(=O)(c1ccccc1)c1ccccc1 (configuration not stated) | > 100 µM | –
29 | CC(C)c1ccc(C(c2ccc(OCC(=O)O)cc2)c2ccc(C(C)C)cc(=O)c2O)c(O)c(=O)c1 | 11 µM | –
30 | CN1C(=O)c2ccccc2NC(=O)C12O[C@@H]2c1cccc(O)c1 (some centres not stated) | > 100 µM | –
31 | COc1ccc2c3c(coc13)C(CCC(=O)O)CC2 (configuration not stated) | > 100 µM | –
32 | N#Cc1cccc(NC(=O)c2cc(-c3ccc(F)cc3F)ccc2O)c1 | 7.84 µM | 1.94 µM
33 | COc1ncc(-c2ccc3ncnc(Nc4cccc(Cl)c4)c3c2)cc1NS(=O)(=O)CCN1CCOCC1 | > 100 µM | 0.755 µM
34 | CC(=O)N1C/C(=C\c2ccc(N(C)C)cc2)C(=O)/C(=C/c2ccc(N(C)C)cc2)C1 | > 100 µM | –
35 | COC1=CC2(C=CC1=O)c1cc(OC)c(OC)cc1CCN2C(=O)c1ccccc1 (configuration not stated) | > 100 µM | –

test system: K-562 leukemia; assay: NCI-60 cell line screen, 48 h

Row | SMILES | TGI | GI50
36 | Fc1ccc(C2SCc3nc4ccccc4n32)cc1Cl (configuration not stated) | 55.9 µM | –
37 | CC1=N/C(=C\c2cccc([N+](=O)[O-])c2)C(=O)O1 | > 100 µM | –
38 | COc1ccc(/C=C\c2cc(OC)c(OC)c(OC)c2)cc1OC(=O)NCCN(C)C | 23.7 µM | –
39 | Cc1ccc(NC(=O)NCCCOc2ccc(N3C(N)=NC(N)=NC3(C)C)cc2Cl)cc1S(=O)(=O)F | > 100 µM | 0.677 µM
40 | CC[CH2][Sn]([Cl])([Cl])[CH2]CC.Oc1ccccc1C=NCCN=Cc1ccccc1O | > 100 µM | 2.53 µM
41 | C/C=C1/C(=C/c2[nH]c(/C=c3\[nH]/c(=C/C4=NC(=O)C(CC)=C4C)c(C)c3CCC(=O)O)c(CCC(=O)O)c2C)NC(=O)C1C (configuration not stated) | > 150 µg/mL | > 150 µg/mL
42 | COc1cccc(/C=C2\C(=O)N(C(=O)c3ccc(NC(C)=O)cc3)N=C2C)c1 | > 100 µM | –
43 | COC(C(O)c1ccc2c(c1)OCO2)P(=O)(c1ccccc1)c1ccccc1 (configuration not stated) | > 100 µM | –
44 | CNc1nc(N)c(N=O)c(Nc2ccc(Br)cc2)n1 | > 100 µM | –
45 | CC(C)c1ccc(C(c2ccc(OCC(=O)O)cc2)c2ccc(C(C)C)cc(=O)c2O)c(O)c(=O)c1 | 35.5 µM | –
46 | N#Cc1cccc(NC(=O)c2cc(-c3ccc(F)cc3F)ccc2O)c1 | > 100 µM | 1.98 µM
47 | CC(=O)N1C/C(=C\c2ccc(N(C)C)cc2)C(=O)/C(=C/c2ccc(N(C)C)cc2)C1 | > 100 µM | –
48 | COC1=CC2(C=CC1=O)c1cc(OC)c(OC)cc1CCN2C(=O)c1ccccc1 (configuration not stated) | > 100 µM | –

test system: SK-MEL-28 melanoma; assay: NCI-60 cell line screen, 48 h

Row | SMILES | TGI | GI50
49 | Fc1ccc(C2SCc3nc4ccccc4n32)cc1Cl (configuration not stated) | 61.2 µM | –
50 | CC1=N/C(=C\c2cccc([N+](=O)[O-])c2)C(=O)O1 | > 100 µM | –
51 | COc1ccc(/C=C\c2cc(OC)c(OC)c(OC)c2)cc1OC(=O)NCCN(C)C | 43.1 µM | < 0.0001 µM
52 | Cc1ccc(NC(=O)NCCCOc2ccc(N3C(N)=NC(N)=NC3(C)C)cc2Cl)cc1S(=O)(=O)F | > 100 µM | 11.6 µM
53 | CC[CH2][Sn]([Cl])([Cl])[CH2]CC.Oc1ccccc1C=NCCN=Cc1ccccc1O | 21.6 µM | 8.7 µM
54 | C/C=C1/C(=C/c2[nH]c(/C=c3\[nH]/c(=C/C4=NC(=O)C(CC)=C4C)c(C)c3CCC(=O)O)c(CCC(=O)O)c2C)NC(=O)C1C (configuration not stated) | > 150 µg/mL | > 150 µg/mL
55 | COc1cccc(/C=C2\C(=O)N(C(=O)c3ccc(NC(C)=O)cc3)N=C2C)c1 | > 100 µM | –
56 | COC(C(O)c1ccc2c(c1)OCO2)P(=O)(c1ccccc1)c1ccccc1 (configuration not stated) | > 100 µM | –
57 | CNc1nc(N)c(N=O)c(Nc2ccc(Br)cc2)n1 | > 100 µM | –
58 | CC(C)c1ccc(C(c2ccc(OCC(=O)O)cc2)c2ccc(C(C)C)cc(=O)c2O)c(O)c(=O)c1 | 24.5 µM | –
59 | CN1C(=O)c2ccccc2NC(=O)C12O[C@@H]2c1cccc(O)c1 (some centres not stated) | > 100 µM | –
60 | COc1ccc2c3c(coc13)C(CCC(=O)O)CC2 (configuration not stated) | > 100 µM | –
61 | N#Cc1cccc(NC(=O)c2cc(-c3ccc(F)cc3F)ccc2O)c1 | 14.8 µM | 2.07 µM
